# From patent publication US10182994B2, “Nanoparticulate complex of nicotine and cerium oxide and use thereof” (priority 2014, dated 2019)
# Test system: neurons that have low expression of ATG7
# Details: pretreatment of neurons with lentiviral shRNA knock-down of ATG7; neurotoxin MPP+
# Text: A lentiviral shRNA was used to knock-down the expression of ATG7, a component of the autophagy system.
compound,measurement,value
CN1CCCC1c1cccnc1 (stereo not shown) [nicotine],prevention of MPP+ induced cellular damage,prevent MPP+ induced cellular damage
